US10815230B2, “Casein kinase 1 delta inhibitor” (ELECTROPHORETICS LIMITED, priority 2015, dated 2020)

Legend:
Test in all cases: KINOMEscan binding assay
Details in all cases: read-out: % Ctrl @ 10000 nM
TIE1 = TIE1 (Homo sapiens, UniProt P35590)
ROCK1 = ROCK1 (Homo sapiens, UniProt Q13464)
ABL2 = ABL2 (Homo sapiens, UniProt P42684)
AURKB = AURKB (Homo sapiens, UniProt Q96GD4)
BUB1 = BUB1 (Homo sapiens, UniProt O43683)
PIK3C2G = PIK3C2G (Homo sapiens, UniProt O75747)
MAPKAPK5 = biological target: T1, MAPKAPK5 (Homo sapiens, UniProt Q8IW41)
T1 construct: T7 phage fusion (most assays) or DNA label after HEK293 expression; purchased DiscoveRx (KINOMEscan, LeadHunter Discovery services); host or cells: T7 phage in E. coli (BL21-derived) or HEK293

INSR = INSR (Homo sapiens, UniProt P06213)
HIPK3 = HIPK3 (Homo sapiens, UniProt Q9H422)
PFTAIRE2 = PFTAIRE2 (Homo sapiens, UniProt Q96Q40)
TBK1 = TBK1 (Homo sapiens, UniProt Q9UHD2)
TYRO3 = biological target: T2, TYRO3 (Homo sapiens, UniProt Q06418)
T2 construct: purchased DiscoveRx (KINOMEscan, LeadHunter Discovery services)

[1] = biological target: RSK1 Kin.Dom.1-N-terminal (Homo sapiens, UniProt Q15418)
ANKK1 = ANKK1 (Homo sapiens, UniProt Q8NFD2)
MYLK2 = MYLK2 (Homo sapiens, UniProt Q9H1R3)
Chain of MYLK2 (Q9H1R3 whole entry): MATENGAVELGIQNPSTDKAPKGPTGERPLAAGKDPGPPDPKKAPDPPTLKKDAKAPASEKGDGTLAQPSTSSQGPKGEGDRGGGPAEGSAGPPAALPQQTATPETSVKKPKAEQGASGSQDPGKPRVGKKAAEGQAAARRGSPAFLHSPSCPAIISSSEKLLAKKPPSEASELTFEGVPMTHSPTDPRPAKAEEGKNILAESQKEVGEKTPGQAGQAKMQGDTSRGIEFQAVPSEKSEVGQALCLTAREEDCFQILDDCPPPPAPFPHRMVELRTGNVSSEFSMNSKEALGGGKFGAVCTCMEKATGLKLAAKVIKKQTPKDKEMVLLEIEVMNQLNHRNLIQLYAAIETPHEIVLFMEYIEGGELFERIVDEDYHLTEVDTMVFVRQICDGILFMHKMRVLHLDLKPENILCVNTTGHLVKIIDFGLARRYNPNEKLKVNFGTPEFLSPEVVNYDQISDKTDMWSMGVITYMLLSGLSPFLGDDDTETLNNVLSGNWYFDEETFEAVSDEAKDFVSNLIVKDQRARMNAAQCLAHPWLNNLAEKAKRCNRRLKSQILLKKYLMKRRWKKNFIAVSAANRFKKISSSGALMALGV

FLT3 (D835H) = FLT3 (D835H) (Homo sapiens, UniProt P36888, D835H)
FGFR2 = FGFR2 (Homo sapiens, UniProt P21802)
QSK = QSK (Homo sapiens, UniProt Q9Y2K2)
ERK5 = ERK5 (Homo sapiens, UniProt Q13164)
MARK2 = MARK2 (Homo sapiens, UniProt Q7KZI7)
Chain of MARK2 (Q7KZI7 whole entry): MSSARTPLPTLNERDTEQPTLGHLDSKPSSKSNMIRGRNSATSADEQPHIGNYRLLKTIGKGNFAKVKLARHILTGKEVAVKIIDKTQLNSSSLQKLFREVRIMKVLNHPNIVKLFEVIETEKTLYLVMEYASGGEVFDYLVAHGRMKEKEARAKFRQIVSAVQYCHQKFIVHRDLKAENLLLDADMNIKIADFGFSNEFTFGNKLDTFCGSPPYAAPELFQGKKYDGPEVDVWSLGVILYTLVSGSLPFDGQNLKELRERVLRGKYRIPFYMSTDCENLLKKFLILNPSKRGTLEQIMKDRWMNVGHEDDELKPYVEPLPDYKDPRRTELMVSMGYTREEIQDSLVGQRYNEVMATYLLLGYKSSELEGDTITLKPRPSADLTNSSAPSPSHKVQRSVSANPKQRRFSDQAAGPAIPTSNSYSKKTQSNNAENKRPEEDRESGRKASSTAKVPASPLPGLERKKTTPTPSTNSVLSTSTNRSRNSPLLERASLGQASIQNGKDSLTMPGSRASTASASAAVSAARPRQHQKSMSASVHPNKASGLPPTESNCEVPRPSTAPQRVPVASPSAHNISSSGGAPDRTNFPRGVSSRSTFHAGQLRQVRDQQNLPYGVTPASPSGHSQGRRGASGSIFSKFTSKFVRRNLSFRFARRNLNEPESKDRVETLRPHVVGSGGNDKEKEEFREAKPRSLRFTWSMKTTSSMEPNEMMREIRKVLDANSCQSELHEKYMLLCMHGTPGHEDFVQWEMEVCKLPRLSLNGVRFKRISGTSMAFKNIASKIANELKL

PRKR = PRKR (Homo sapiens, UniProt P19525)
MEK3 = MEK3 (Homo sapiens, UniProt P46734)
Chain of MEK3 (P46734 whole entry): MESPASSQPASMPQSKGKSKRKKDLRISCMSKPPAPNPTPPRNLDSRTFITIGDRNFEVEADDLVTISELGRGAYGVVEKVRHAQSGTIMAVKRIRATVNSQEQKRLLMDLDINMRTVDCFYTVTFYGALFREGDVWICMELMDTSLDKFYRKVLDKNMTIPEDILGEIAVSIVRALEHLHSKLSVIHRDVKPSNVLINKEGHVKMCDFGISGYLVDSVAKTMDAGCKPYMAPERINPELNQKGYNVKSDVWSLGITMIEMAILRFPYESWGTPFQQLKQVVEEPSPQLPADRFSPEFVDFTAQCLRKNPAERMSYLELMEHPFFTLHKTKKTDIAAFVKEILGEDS

YANK2 = biological target: T3, YANK2 (Homo sapiens, UniProt Q9NY57)
T3 construct: purchased DiscoveRx (KINOMEscan, LeadHunter Discovery services)
T3 sequence (Q9NY57 whole entry): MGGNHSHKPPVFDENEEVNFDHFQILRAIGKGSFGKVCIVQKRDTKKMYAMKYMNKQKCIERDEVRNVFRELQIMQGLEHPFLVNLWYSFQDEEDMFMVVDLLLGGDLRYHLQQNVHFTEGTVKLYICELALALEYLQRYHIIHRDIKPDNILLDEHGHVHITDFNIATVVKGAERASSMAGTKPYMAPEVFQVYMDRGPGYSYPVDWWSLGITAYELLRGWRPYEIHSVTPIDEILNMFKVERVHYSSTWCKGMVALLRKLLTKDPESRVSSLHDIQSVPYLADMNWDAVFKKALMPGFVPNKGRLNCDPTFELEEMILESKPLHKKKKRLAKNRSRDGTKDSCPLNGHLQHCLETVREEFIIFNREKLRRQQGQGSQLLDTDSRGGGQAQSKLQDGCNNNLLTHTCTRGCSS

BRSK2 = BRSK2 (Homo sapiens, UniProt Q8IWQ3)
ACVR2B = ACVR2B (Homo sapiens, UniProt Q13705)
CAMK2D = CAMK2D (Homo sapiens, UniProt Q13557)
GSK3B = GSK3B (Homo sapiens, UniProt P49841)
DAPK1 = DAPK1 (Homo sapiens, UniProt P53355)
ALK (C1156Y) = ALK (C1156Y) (Homo sapiens, UniProt Q9UM73, C1156Y)
PRKD2 = PRKD2 (Homo sapiens, UniProt Q9BZL6)
HIPK4 = HIPK4 (Homo sapiens, UniProt Q8NE63)
[2] = biological target: JAK3 (JH1domain-catalytic) (Homo sapiens, UniProt P52333)
HIPK2 = HIPK2 (Homo sapiens, UniProt Q9H2X6)
PAK7 = PAK7 (Homo sapiens, UniProt Q9P286)
NEK10 = NEK10 (Homo sapiens, UniProt Q6ZWH5)
Chain of NEK10 (Q6ZWH5 whole entry): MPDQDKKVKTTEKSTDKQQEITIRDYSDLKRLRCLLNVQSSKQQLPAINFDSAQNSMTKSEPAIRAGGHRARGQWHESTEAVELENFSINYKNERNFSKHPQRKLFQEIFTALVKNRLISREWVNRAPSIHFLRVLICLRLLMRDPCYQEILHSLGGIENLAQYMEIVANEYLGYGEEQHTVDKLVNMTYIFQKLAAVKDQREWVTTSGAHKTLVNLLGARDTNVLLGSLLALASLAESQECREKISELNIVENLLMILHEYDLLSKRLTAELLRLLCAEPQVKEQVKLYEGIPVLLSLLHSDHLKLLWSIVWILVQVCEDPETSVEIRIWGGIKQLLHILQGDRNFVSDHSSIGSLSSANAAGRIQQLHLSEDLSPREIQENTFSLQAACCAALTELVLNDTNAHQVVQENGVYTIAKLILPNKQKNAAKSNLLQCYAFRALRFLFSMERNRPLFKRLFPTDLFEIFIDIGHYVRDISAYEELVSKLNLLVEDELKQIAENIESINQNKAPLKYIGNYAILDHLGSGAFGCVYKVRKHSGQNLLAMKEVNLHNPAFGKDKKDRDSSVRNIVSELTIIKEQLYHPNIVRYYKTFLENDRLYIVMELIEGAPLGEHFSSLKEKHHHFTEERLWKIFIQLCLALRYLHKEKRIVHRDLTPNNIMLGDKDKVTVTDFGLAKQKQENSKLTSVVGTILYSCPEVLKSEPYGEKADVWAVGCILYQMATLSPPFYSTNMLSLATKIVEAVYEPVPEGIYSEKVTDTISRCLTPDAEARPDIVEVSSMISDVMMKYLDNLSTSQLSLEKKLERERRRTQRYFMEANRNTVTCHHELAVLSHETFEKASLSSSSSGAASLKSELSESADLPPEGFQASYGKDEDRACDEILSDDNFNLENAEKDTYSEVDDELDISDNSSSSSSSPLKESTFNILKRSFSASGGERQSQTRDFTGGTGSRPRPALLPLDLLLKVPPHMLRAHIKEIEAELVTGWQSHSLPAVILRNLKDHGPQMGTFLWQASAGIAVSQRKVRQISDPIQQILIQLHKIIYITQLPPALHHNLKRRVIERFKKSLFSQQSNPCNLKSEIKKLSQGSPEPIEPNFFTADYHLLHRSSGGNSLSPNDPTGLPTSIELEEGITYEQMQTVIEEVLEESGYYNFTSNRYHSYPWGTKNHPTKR

YANK3 = biological target: T4, YANK3 (Homo sapiens, UniProt Q86UX6)
T4 construct: purchased DiscoveRx (KINOMEscan, LeadHunter Discovery services)

EPHA6 = EPHA6 (Homo sapiens, UniProt Q9UF33)
STK16 = STK16 (Homo sapiens, UniProt O75716)
ERBB2 = ERBB2 (Homo sapiens, UniProt P04626)
STK35 = STK35 (Homo sapiens, UniProt Q8TDR2)
CSK = CSK (Homo sapiens, UniProt P41240)
Chain of CSK (P41240 whole entry): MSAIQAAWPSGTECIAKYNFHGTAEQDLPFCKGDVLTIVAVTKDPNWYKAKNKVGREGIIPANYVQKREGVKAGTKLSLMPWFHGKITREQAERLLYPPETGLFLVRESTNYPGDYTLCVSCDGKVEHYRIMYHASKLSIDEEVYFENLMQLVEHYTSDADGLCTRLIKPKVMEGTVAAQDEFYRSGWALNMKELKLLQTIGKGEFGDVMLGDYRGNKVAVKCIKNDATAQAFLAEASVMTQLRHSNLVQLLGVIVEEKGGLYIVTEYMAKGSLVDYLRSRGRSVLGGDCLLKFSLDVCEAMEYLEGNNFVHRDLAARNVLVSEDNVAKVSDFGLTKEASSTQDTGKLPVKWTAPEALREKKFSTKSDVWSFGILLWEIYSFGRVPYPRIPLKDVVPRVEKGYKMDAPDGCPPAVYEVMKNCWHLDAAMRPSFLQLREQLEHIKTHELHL

KIT = KIT (Homo sapiens, UniProt P10721)

Chain of TIE1 (P35590 22-1138): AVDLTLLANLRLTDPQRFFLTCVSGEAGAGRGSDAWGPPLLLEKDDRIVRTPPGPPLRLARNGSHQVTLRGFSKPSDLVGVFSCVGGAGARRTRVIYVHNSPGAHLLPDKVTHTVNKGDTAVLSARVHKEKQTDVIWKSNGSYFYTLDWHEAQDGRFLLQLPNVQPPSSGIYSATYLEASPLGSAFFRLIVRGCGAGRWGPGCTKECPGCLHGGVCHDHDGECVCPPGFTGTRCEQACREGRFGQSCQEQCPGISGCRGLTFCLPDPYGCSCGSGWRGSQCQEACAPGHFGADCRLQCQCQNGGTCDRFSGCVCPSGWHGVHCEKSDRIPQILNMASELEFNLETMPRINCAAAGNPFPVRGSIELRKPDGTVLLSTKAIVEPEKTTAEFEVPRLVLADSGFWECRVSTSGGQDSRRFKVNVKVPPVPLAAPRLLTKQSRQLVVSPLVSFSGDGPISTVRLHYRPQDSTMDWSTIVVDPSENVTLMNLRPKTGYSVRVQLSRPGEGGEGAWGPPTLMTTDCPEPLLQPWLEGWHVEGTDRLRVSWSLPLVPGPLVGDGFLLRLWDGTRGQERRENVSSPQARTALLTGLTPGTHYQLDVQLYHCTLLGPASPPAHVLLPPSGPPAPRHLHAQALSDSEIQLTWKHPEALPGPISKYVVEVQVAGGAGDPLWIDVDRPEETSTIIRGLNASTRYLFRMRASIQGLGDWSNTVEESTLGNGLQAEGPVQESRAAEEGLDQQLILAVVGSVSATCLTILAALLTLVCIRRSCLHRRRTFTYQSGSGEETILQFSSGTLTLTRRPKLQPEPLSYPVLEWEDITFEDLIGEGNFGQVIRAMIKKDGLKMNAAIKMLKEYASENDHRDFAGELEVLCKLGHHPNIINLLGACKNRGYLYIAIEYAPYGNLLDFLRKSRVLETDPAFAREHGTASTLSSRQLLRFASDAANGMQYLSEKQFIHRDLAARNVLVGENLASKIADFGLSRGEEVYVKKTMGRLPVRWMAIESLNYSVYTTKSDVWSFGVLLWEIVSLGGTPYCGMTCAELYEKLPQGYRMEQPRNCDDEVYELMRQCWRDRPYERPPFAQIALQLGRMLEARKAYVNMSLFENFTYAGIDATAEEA

**Q.** For Nc1ncc(-c2nc3ccccc3o2)c(-c2ccncc2)n1 [Comparative Compound 324, 5-(1,3-benzoxazol-2-yl)-4-(pyridine-4-yl)pyrimidin-2-amine], which remaining binding at 10 µM (TIE1) is on record?
**A.** 100%

**Q.** What about the remaining binding at 10 µM (ROCK1) of the same molecule?
**A.** 96%

**Q.** And the remaining binding at 10 µM (ABL2)?
**A.** 85%

**Q.** What about the remaining binding at 10 µM (AURKB) of the same molecule?
**A.** 96%

**Q.** What about the remaining binding at 10 µM (BUB1) of the same molecule?
**A.** 44%

**Q.** What about the remaining binding at 10 µM (PIK3C2G) of the same molecule?
**A.** 99%

**Q.** And the remaining binding at 10 µM (MAPKAPK5)?
**A.** 100%

**Q.** What about the remaining binding at 10 µM (INSR) of the same molecule?
**A.** 100%

**Q.** And the remaining binding at 10 µM (HIPK3)?
**A.** 91%

**Q.** What about the remaining binding at 10 µM (PFTAIRE2) of the same molecule?
**A.** 100%

**Q.** What about the remaining binding at 10 µM (TBK1) of the same molecule?
**A.** 85%

**Q.** What about the remaining binding at 10 µM (TYRO3) of the same molecule?
**A.** 99%

**Q.** And the remaining binding at 10 µM [1]?
**A.** 86%

**Q.** And the remaining binding at 10 µM (ANKK1)?
**A.** 71%

**Q.** What about the remaining binding at 10 µM (MYLK2) of the same molecule?
**A.** 100%

**Q.** And the remaining binding at 10 µM (FLT3 (D835H))?
**A.** 68%

**Q.** And the remaining binding at 10 µM (FGFR2)?
**A.** 63%

**Q.** And the remaining binding at 10 µM (QSK)?
**A.** 99%

**Q.** What about the remaining binding at 10 µM (ERK5) of the same molecule?
**A.** 93%

**Q.** And the remaining binding at 10 µM (MARK2)?
**A.** 91%

**Q.** And the remaining binding at 10 µM (PRKR)?
**A.** 96%

**Q.** What about the remaining binding at 10 µM (MEK3) of the same molecule?
**A.** 80%

**Q.** What about the remaining binding at 10 µM (YANK2) of the same molecule?
**A.** 70%

**Q.** And the remaining binding at 10 µM (BRSK2)?
**A.** 100%

**Q.** What about the remaining binding at 10 µM (ACVR2B) of the same molecule?
**A.** 100%

**Q.** What about the remaining binding at 10 µM (CAMK2D) of the same molecule?
**A.** 99%

**Q.** And the remaining binding at 10 µM (GSK3B)?
**A.** 95%

**Q.** And the remaining binding at 10 µM (DAPK1)?
**A.** 87%

**Q.** What about the remaining binding at 10 µM (ALK (C1156Y)) of the same molecule?
**A.** 100%

**Q.** And the remaining binding at 10 µM (PRKD2)?
**A.** 90%

**Q.** What about the remaining binding at 10 µM (HIPK4) of the same molecule?
**A.** 100%

**Q.** What about the remaining binding at 10 µM [2] of the same molecule?
**A.** 74%

**Q.** What about the remaining binding at 10 µM (HIPK2) of the same molecule?
**A.** 67%

**Q.** And the remaining binding at 10 µM (PAK7)?
**A.** 96%

**Q.** And the remaining binding at 10 µM (NEK10)?
**A.** 56%

**Q.** And the remaining binding at 10 µM (YANK3)?
**A.** 97%

**Q.** And the remaining binding at 10 µM (EPHA6)?
**A.** 100%

**Q.** What about the remaining binding at 10 µM (STK16) of the same molecule?
**A.** 89%

**Q.** And the remaining binding at 10 µM (ERBB2)?
**A.** 99%

**Q.** And the remaining binding at 10 µM (STK35)?
**A.** 100%

**Q.** And the remaining binding at 10 µM (CSK)?
**A.** 100%

**Q.** What about the remaining binding at 10 µM (KIT) of the same molecule?
**A.** 91%

**Q.** CNc1c(C(N)=O)c2ccccn2c1C(=O)c1ccc(F)cc1 [Compound A, 2-methyl-amino-3-[(4-fluorophenyl)carbonyl]indolizine-1-carboxamide] was tested. Which remaining binding at 10 µM (TIE1) did it give?
**A.** 95%

**Q.** And the remaining binding at 10 µM (ROCK1)?
**A.** 100%

**Q.** What about the remaining binding at 10 µM (ABL2) of the same molecule?
**A.** 68%

**Q.** And the remaining binding at 10 µM (AURKB)?
**A.** 86%

**Q.** What about the remaining binding at 10 µM (BUB1) of the same molecule?
**A.** 44%

**Q.** And the remaining binding at 10 µM (PIK3C2G)?
**A.** 100%

**Q.** And the remaining binding at 10 µM (MAPKAPK5)?
**A.** 100%

**Q.** What about the remaining binding at 10 µM (INSR) of the same molecule?
**A.** 100%

**Q.** What about the remaining binding at 10 µM (HIPK3) of the same molecule?
**A.** 79%

**Q.** And the remaining binding at 10 µM (PFTAIRE2)?
**A.** 100%

**Q.** What about the remaining binding at 10 µM (TBK1) of the same molecule?
**A.** 74%

**Q.** And the remaining binding at 10 µM (TYRO3)?
**A.** 100%

**Q.** And the remaining binding at 10 µM [1]?
**A.** 72%

**Q.** What about the remaining binding at 10 µM (ANKK1) of the same molecule?
**A.** 68%

**Q.** What about the remaining binding at 10 µM (MYLK2) of the same molecule?
**A.** 100%

**Q.** What about the remaining binding at 10 µM (FLT3 (D835H)) of the same molecule?
**A.** 60%

**Q.** And the remaining binding at 10 µM (FGFR2)?
**A.** 53%

**Q.** What about the remaining binding at 10 µM (QSK) of the same molecule?
**A.** 82%

**Q.** And the remaining binding at 10 µM (ERK5)?
**A.** 78%

**Q.** What about the remaining binding at 10 µM (MARK2) of the same molecule?
**A.** 85%

**Q.** And the remaining binding at 10 µM (PRKR)?
**A.** 90%

**Q.** And the remaining binding at 10 µM (MEK3)?
**A.** 60%

**Q.** What about the remaining binding at 10 µM (YANK2) of the same molecule?
**A.** 78%

**Q.** What about the remaining binding at 10 µM (BRSK2) of the same molecule?
**A.** 94%

**Q.** What about the remaining binding at 10 µM (ACVR2B) of the same molecule?
**A.** 100%

**Q.** And the remaining binding at 10 µM (CAMK2D)?
**A.** 78%

**Q.** And the remaining binding at 10 µM (GSK3B)?
**A.** 86%

**Q.** And the remaining binding at 10 µM (DAPK1)?
**A.** 77%

**Q.** And the remaining binding at 10 µM (ALK (C1156Y))?
**A.** 98%

**Q.** What about the remaining binding at 10 µM (PRKD2) of the same molecule?
**A.** 68%

**Q.** What about the remaining binding at 10 µM (HIPK4) of the same molecule?
**A.** 83%

**Q.** And the remaining binding at 10 µM [2]?
**A.** 100%

**Q.** What about the remaining binding at 10 µM (HIPK2) of the same molecule?
**A.** 74%

**Q.** And the remaining binding at 10 µM (PAK7)?
**A.** 96%

**Q.** What about the remaining binding at 10 µM (NEK10) of the same molecule?
**A.** 100%

**Q.** What about the remaining binding at 10 µM (YANK3) of the same molecule?
**A.** 100%

**Q.** What about the remaining binding at 10 µM (EPHA6) of the same molecule?
**A.** 96%

**Q.** And the remaining binding at 10 µM (STK16)?
**A.** 81%

**Q.** And the remaining binding at 10 µM (ERBB2)?
**A.** 49%

**Q.** What about the remaining binding at 10 µM (STK35) of the same molecule?
**A.** 100%

**Q.** And the remaining binding at 10 µM (CSK)?
**A.** 91%

**Q.** What about the remaining binding at 10 µM (KIT) of the same molecule?
**A.** 32%
